“And” between values parts separate entries of the source, which are not always exact repeats. Equal entries are not always repeated.
Columns and labels:
[1] = target: T1, Cysteinyl leukotriene receptor 1 (Cavia porcellus, UniProt Q2NNR5); experiment: Inhibition of [3H]LTD4 binding on guinea-pig lung membranes; format: tissue-based, Membrane
T1 sequence (Q2NNR5 whole entry): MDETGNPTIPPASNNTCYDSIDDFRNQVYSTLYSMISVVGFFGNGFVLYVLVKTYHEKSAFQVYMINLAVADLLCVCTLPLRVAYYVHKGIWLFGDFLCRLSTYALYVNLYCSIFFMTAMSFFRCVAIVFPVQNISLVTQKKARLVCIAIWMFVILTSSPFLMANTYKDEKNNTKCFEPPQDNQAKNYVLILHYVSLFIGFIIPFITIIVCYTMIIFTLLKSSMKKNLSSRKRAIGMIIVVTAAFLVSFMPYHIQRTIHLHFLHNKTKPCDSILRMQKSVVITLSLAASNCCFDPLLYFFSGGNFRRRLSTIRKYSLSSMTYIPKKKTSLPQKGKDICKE

[2] = system: Monkey; experiment: […] inhibition of peptidoleukotriene -induced reduction in dynamic compliance in conscious squirrel monkey at a dose of 0.03 mg/Kg; format: functional
[3] = system: Mus musculus; experiment: […] effect on peroximal enzyme induction (PEI) over control animals (mice) after 4 days dosing at 400 mg/Kg perorally; format: functional
[4] = system: Monkey; experiment: Inhibition of LTD4-induced bronchoconstriction in conscious squirrel monkey; format: functional
[5] = system: Mus musculus; experiment: Compound was evaluated for its effect on the liver weight in mice after 4 days dosing at 400 mg/Kg perorally; format: functional
[6] = species: Cavia porcellus; experiment: Inhibition of LTD4-induced contraction of guinea-pig tracheal chains; format: functional, Trachea
[7] = system: Mus musculus; experiment: […] effect on the liver weight in mice after 4 days dosing at 400 mg/Kg perorally; format: functional
[8] = system: Monkey; experiment: […] inhibition of peptidoleukotriene -induced reduction in dynamic compliance in conscious squirrel monkey at a dose of 0.1 mg/Kg; format: functional

| SMILES | IC50 [1] | further results |
| --- | --- | --- |
| CC(C)c1nc(/C=C/c2cccc([C@@H](CCc3ccccc3C(C)(C)O)SCC3(CC(=O)O)CC3)c2)sc1Cl | 170 nM and 197 nM | – |
| CC(C)c1csc(/C=C/c2cccc([C@@H](CCc3ccccc3C(C)(C)O)SCC3(CC(=O)O)CC3)c2)n1 | 1.9 nM | Cdyn [2]: -8%; PEI [3]: 62; RL [4]: 40%; Weight [5]: 9%; pKb [6]: 9.1 |
| CC(C)(O)c1ccccc1CC[C@@H](SCC1(CC(=O)O)CC1)c1cccc(/C=C/c2nc(CSc3ccccc3)cs2)c1 | 42.2 nM | – |
| CC(C)(O)c1ccccc1CC[C@@H](SCC1(CC(=O)O)CC1)c1cccc(/C=C/c2nc(C3CC3)cs2)c1 | 1.7 nM and 3.3 nM | – |
| CC(CC(F)(F)F)c1csc(/C=C/c2cccc([C@@H](CCc3ccccc3C(C)(C)O)SCC3(CC(=O)O)CC3)c2)n1 (some centres undefined) | 0.7 nM and 1 nM | – |
| CC(C)(O)c1ccccc1CC[C@@H](SCC1(CC(=O)O)CC1)c1cccc(/C=C/c2nc(C3CCCCC3)cs2)c1 | 2.1 nM | – |
| CC(C)(O)c1ccccc1CC[C@@H](SCC1(CC(=O)O)CC1)c1cccc(/C=C/c2nc(C3CCC3)cs2)c1 | 0.6 nM and 0.5 nM | – |
| CN(C)C(=O)CCS[C@H](SCCC(=O)O)c1cccc(/C=C/c2ccc3ccc(Cl)cc3n2)c1 [VERLUKAST] | 3.9 nM | Cdyn [8]: 56%; PEI [3]: 65; RL [4]: 59%; Weight [7]: 0%; pKb [6]: 8.9 |
| CC(C)(O)c1ccccc1CC[C@@H](SCC1(CC(=O)O)CC1)c1cccc(/C=C/c2nc(C3CCCC3)cs2)c1 | 1.4 nM and 0.8 nM | – |
| CC(C)(O)c1ccccc1CC[C@@H](SCC1(CC(=O)O)CC1)c1cccc(/C=C/c2nc3c(s2)CCCC3)c1 | 1.5 nM | – |
| CC(C)(O)c1ccccc1CC[C@@H](SCC1(CC(=O)O)CC1)c1cccc(/C=C/c2nc3c(s2)CCC3)c1 | 3 nM and 4.6 nM | – |
| Cc1sc(/C=C/c2cccc([C@@H](CCc3ccccc3C(C)(C)O)SCC3(CC(=O)O)CC3)c2)nc1C(C)C | 12.8 nM and 5.2 nM | – |
| COc1ccc(-c2csc(/C=C/c3cccc([C@@H](CCc4ccccc4C(C)(C)O)SCC4(CC(=O)O)CC4)c3)n2)cc1 | 98.7 nM and 138 nM | – |
| CC(C)(C)c1csc(/C=C/c2cccc([C@@H](CCc3ccccc3C(C)(C)O)SCC3(CC(=O)O)CC3)c2)n1 | 2 nM and 3.3 nM | – |

Now from value to molecule, other results behind:

| IC50 [1] | SMILES | further results |
| --- | --- | --- |
| 47.6 nM | COc1ccc2nc(/C=C/c3cccc([C@@H](CCc4ccccc4C(C)(C)O)SCC4(CC(=O)O)CC4)c3)sc2c1 | – |
| 3.3 nM | CC(C)(O)c1ccccc1CC[C@@H](SCC1(CC(=O)O)CC1)c1cccc(/C=C/c2nc3cc(F)ccc3s2)c1 | Cdyn [2]: 100%; PEI [3]: 120; RL [4]: 73%; Weight [7]: 12%; pKb [6]: 8.8 |
| 0.8 nM | CC(C)(O)c1ccccc1CC[C@@H](SCC1(CC(=O)O)CC1)c1cccc(/C=C/c2nc3cc(F)c(F)cc3s2)c1 | – |
| 16.8 nM | CC(C)(O)c1ccccc1CC[C@@H](SCC1(CC(=O)O)CC1)c1cccc(/C=C/c2nc3ccccc3s2)c1 | – |
| 79.3 nM and 99.7 nM | CC(C)(O)c1ccccc1CC[C@@H](SCC1(CC(=O)O)CC1)c1cccc(/C=C/c2nc(-c3ccc(Cl)cc3)cs2)c1 | – |
| 7.5 nM and 11.6 nM | CC(C)(O)c1ccccc1CC[C@@H](SCC1(CC(=O)O)CC1)c1cccc(/C=C/c2nc3cc(C(F)(F)F)ccc3s2)c1 | – |
| 6.7 nM and 15.4 nM | CC(C)(O)c1ccccc1CC[C@@H](SCC1(CC(=O)O)CC1)c1cccc(/C=C/c2nc(-c3ccc(F)cc3)cs2)c1 | – |
| 7.7 nM and 6 nM | CC(C)(O)c1ccccc1CC[C@@H](SCC1(CC(=O)O)CC1)c1cccc(/C=C/c2nc3cc(Cl)ccc3s2)c1 | – |
| 381 nM | CC(C)(O)c1ccccc1CC[C@@H](SCC1(CC(=O)O)CC1)c1cccc(/C=C/c2nccs2)c1 | – |
| 11 nM and 6.7 nM | CC(C)(O)c1ccccc1CC[C@@H](SCC1(CC(=O)O)CC1)c1cccc(/C=C/c2nc(-c3ccccc3)cs2)c1 | – |
